# Assay: Chemical stability of the amide linkage (hydrolysis in NH4OH)
# Format: physicochemical
# Settings: 30% NH4OH, 55° C., 24 h, assessed by TLC
# Procedure: To assess the chemical stability of the amide linkages in the synthesized compounds, the monomer (6) (T'gly) was subjected to hydrolysis in 30% NH4 OH at 55° C. for 24 h. […] Thus, the amide bond appears to be stable with respect to general base catalyzed hydrolysis. From a practical perspective, this stability to 30% NH4 OH at 55° C. confirms that the amide linkage can withstand the hydrolysis required to remove base protecting groups which are necessary for polymerization of A,C and G homologues.
smiles,measurement,value
"Cc1cn([C@H]2C[C@H](N)[C@@H](C(=O)NCC(=O)O)O2)c(=O)[nH]c1=O [Compound 6, 1-(3-amino-2,3-dideoxy-β-D-erythro-pentofuranosyl-5-glycine uronate)thymine]",hydrolysis of the amide linkage,no hydrolysis of the amide linkage was detected

# Reference: US5175266A, “Nucleosides and oligonucleosides with a phosphate-free internucleoside backbone and process for preparing the same” (Triplex Pharmaceutical Corporation, priority 1991, dated 1992)
